Test results as given in patent publication US9133207B2, “Tetrandrine derivatives with substituted 5-carbon, preparation method and use thereof” (Hangzhou Bensheng Pharmaceutical Co., Ltd., priority 2011, dated 2015).
In brackets after ≈: the same amount, converted by molar mass.

Columns and labels:
[1] = tested on: NB4 (acute promyelocytic leukemia, AML); test: Leukemia cell growth inhibition, MTT, 72 h (Example 5); format: cell-based, human; conditions: Homo sapiens; 72 h, MTT
In short: (§1)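 An MTT read-out of viable cell concentration follows 72 h incubation (37° C, 5% CO2) of 6000 cells/well in 10% FBS-supplemented 1640 medium with the 5-substituted derivatives at varying concentrations.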

[2] = tested on: H9 (acute lymphoblastic leukemia, ALL); test: as above; format: cell-based, human; conditions: Homo sapiens; 72 h, MTT
In short: as §1

[3] = tested on: Kasumi-1 (acute myeloid leukemia M2 type, AML-M2); test: as above; format: cell-based, human; conditions: Homo sapiens, Kasumi 1
In short: as §1

[4] = tested on: K562/adr (drug-resistant, chronic myeloid leukemia, CML); test: as above; format: cell-based, human; conditions: Homo sapiens, K562/Adr; 72 h, MTT
In short: as §1

[5] = tested on: Jurkat (acute lymphoblastic leukemia, ALL); test: as above; format: cell-based, human; conditions: for IC50 / IC90: Homo sapiens, Jurkat, 72 h, MTT
In short: as §1

[6] = tested on: MGC 803 (human gastric cancer cell); test: Solid tumor cell growth inhibition, MTT, 72 h (Example 7); format: cell-based; conditions: Homo sapiens
In short: (§2)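 4000 cells/well; DMEM high glucose + 10% FBS; 37 °C, 5% CO2; 24 h pre-culture; tetrandrine derivatives, varied conc., 72 h; MTT readout; viability % vs untreated control = 100%.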

[7] = tested on: RKO (human colon adenocarcinoma cell); test: as above; format: cell-based; conditions: Homo sapiens; 72 h, MTT, RKO
In short: as §2

A549 (human lung cancer) = test: as above; format: cell-based; conditions: Homo sapiens; 72 h, MTT, A549
In short: as §2

[8] = tested on: Hela (human cervical cancer cell); test: as above; format: cell-based; conditions: Homo sapiens; 72 h, MTT, Hela
In short: as §2

[9] = tested on: SK-OV-3 (ovarian cancer cell); test: as above; format: cell-based; conditions: Homo sapiens
In short: as §2

[10] = tested on: Huh7 (human liver cancer cell); test: as above; format: cell-based; conditions: Homo sapiens; 72 h, MTT, Huh-7
In short: as §2

[11] = tested on: CNE (nasopharyngeal carcinoma cell); test: as above; format: cell-based; conditions: Homo sapiens
In short: as §2

[12] = tested on: Becap37 (human breast cancer cell); test: as above; format: cell-based; conditions: Homo sapiens; 72 h, MTT, Becap-37
In short: as §2

[13] = tested on: U87 MG (malignant glioma cell); test: as above; format: cell-based; conditions: Homo sapiens, U-87 MG
In short: as §2

[14] = tested on: CaES-17 (esophageal cancer cell); test: as above; format: cell-based, human; conditions: Homo sapiens, CaEs17; 72 h, MTT, CAES-17
In short: as §2

[15] = tested on: PANC-1 (pancreatic cancer); test: as above; format: cell-based, human; conditions: Homo sapiens; 72 h, MTT, PANC-1
In short: as §2

[16] = tested on: Hep-2 (laryngeal carcinoma); test: as above; format: cell-based, human; conditions: Homo sapiens; 72 h, MTT, Hep 2
In short: as §2

MG63 (osteosarcoma) = test: as above; format: cell-based, human; conditions: Homo sapiens; 72 h, MTT, MG-63
In short: as §2

PC-3 (prostate cancer) = test: as above; format: cell-based, human; conditions: Homo sapiens; 72 h, MTT, PC-3
In short: as §2

[17] = tested on: RPMI8226 (multiple myeloma); test: Multiple myeloma cell growth inhibition, MTT, 72 h (Example 6); format: cell-based, human; conditions: Homo sapiens, RPMI-8226; 72 h, MTT, RPMI8226
In short: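 Viability was read by MTT after 72 h of compound exposure at 37 °C, 5% CO2. Each well held 6000 RPMI8226 cells in 1640 medium containing 10% fetal bovine serum, with derivatives added at various concentrations.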

Compound: COc1ccc2cc1Oc1ccc(cc1)C[C@H]1c3cc(c(OC)cc3CCN1C)Oc1c(OC)c(OC)c(CN3CCSCC3)c3c1[C@H](C2)N(C)CC3 [BS-TE-328]
- IC50 [1]: 1.8 µg/mL (≈ 2.44 µM)
- IC90 [1]: 4.4 µg/mL (≈ 5.96 µM)
- IC50 [2]: 1.54 µg/mL (≈ 2.09 µM)
- IC90 [2]: 3.15 µg/mL (≈ 4.27 µM)
- IC50 [3]: 0.84 µg/mL (≈ 1.14 µM)
- IC90 [3]: 3.76 µg/mL (≈ 5.1 µM)
- IC50 [4]: 1.46 µg/mL (≈ 1.98 µM)
- IC90 [4]: 5.12 µg/mL (≈ 6.94 µM)
- IC50 [5]: 2.09 µg/mL (≈ 2.83 µM)
- IC90 [5]: 8 µg/mL (≈ 10.8 µM)
- IC50 [6]: 1.68 µg/mL (≈ 2.28 µM)
- IC90 [6]: 4 µg/mL (≈ 5.42 µM)
- IC50 [7]: 1.76 µg/mL (≈ 2.38 µM)
- IC90 [7]: 3 µg/mL (≈ 4.07 µM)
- IC50 (A549 (human lung cancer)): 3.7 µg/mL (≈ 5.01 µM)
- IC90 (A549 (human lung cancer)): 9.9 µg/mL (≈ 13.4 µM)
- IC50 [8]: 2.49 µg/mL (≈ 3.37 µM)
- IC90 [8]: 4.91 µg/mL (≈ 6.65 µM)
- IC50 [9]: 6.8 µg/mL (≈ 9.21 µM)
- IC90 [9]: > 16 µg/mL
- IC50 [10]: 1.52 µg/mL (≈ 2.06 µM)
- IC90 [10]: 3.7 µg/mL (≈ 5.01 µM)
- IC50 [11]: 6.02 µg/mL (≈ 8.16 µM)
- IC90 [11]: > 16 µg/mL
- IC50 [12]: 2 µg/mL (≈ 2.71 µM)
- IC90 [12]: 4 µg/mL (≈ 5.42 µM)
- IC50 [13]: 1.44 µg/mL (≈ 1.95 µM)
- IC90 [13]: 5.39 µg/mL (≈ 7.3 µM)
- IC50 [14]: 3.13 µg/mL (≈ 4.24 µM)
- IC90 [14]: 12.2 µg/mL (≈ 16.5 µM)
- IC50 [15]: 2.99 µg/mL (≈ 4.05 µM)
- IC90 [15]: 7.15 µg/mL (≈ 9.69 µM)
- IC50 [16]: 9.63 µg/mL (≈ 13 µM)
- IC90 [16]: 15.9 µg/mL (≈ 21.5 µM)
- IC50 (MG63 (osteosarcoma)): 2.1 µg/mL (≈ 2.85 µM)
- IC90 (MG63 (osteosarcoma)): 3.9 µg/mL (≈ 5.28 µM)
- IC50 (PC-3 (prostate cancer)): 3.07 µg/mL (≈ 4.16 µM)
- IC90 (PC-3 (prostate cancer)): 4.98 µg/mL (≈ 6.75 µM)
- IC50 [17]: 0.15 µg/mL (≈ 0.203 µM)
- IC90 [17]: 0.96 µg/mL (≈ 1.3 µM)

Compound: CNCc1c2c3c(c(OC)c1OC)Oc1cc4c(cc1OC)CCN(C)[C@H]4Cc1ccc(cc1)Oc1cc(ccc1OC)C[C@@H]3N(C)CC2 [BS-TE-326]
- IC50 [1]: 1.2 µg/mL (≈ 1.8 µM)
- IC90 [1]: 1.8 µg/mL (≈ 2.7 µM)
- IC50 [2]: 0.88 µg/mL (≈ 1.32 µM)
- IC90 [2]: 1.35 µg/mL (≈ 2.03 µM)
- IC50 [3]: 0.96 µg/mL (≈ 1.44 µM)
- IC90 [3]: 2.37 µg/mL (≈ 3.56 µM)
- IC50 [4]: 0.89 µg/mL (≈ 1.34 µM)
- IC90 [4]: 2.14 µg/mL (≈ 3.21 µM)
- IC50 [5]: 1.41 µg/mL (≈ 2.12 µM)
- IC90 [5]: 3.98 µg/mL (≈ 5.98 µM)
- IC50 [6]: 1.46 µg/mL (≈ 2.19 µM)
- IC90 [6]: 5.38 µg/mL (≈ 8.08 µM)
- IC50 [7]: 0.87 µg/mL (≈ 1.31 µM)
- IC90 [7]: 2.22 µg/mL (≈ 3.33 µM)
- IC50 (A549 (human lung cancer)): 1.8 µg/mL (≈ 2.7 µM)
- IC90 (A549 (human lung cancer)): 4.9 µg/mL (≈ 7.36 µM)
- IC50 [8]: 1.9 µg/mL (≈ 2.85 µM)
- IC90 [8]: 3.01 µg/mL (≈ 4.52 µM)
- IC50 [9]: 1.91 µg/mL (≈ 2.87 µM)
- IC90 [9]: 5.21 µg/mL (≈ 7.82 µM)
- IC50 [10]: 1.15 µg/mL (≈ 1.73 µM)
- IC90 [10]: 1.76 µg/mL (≈ 2.64 µM)
- IC50 [11]: 3.2 µg/mL (≈ 4.81 µM)
- IC90 [11]: 4.95 µg/mL (≈ 7.43 µM)
- IC50 [12]: 1.3 µg/mL (≈ 1.95 µM)
- IC90 [12]: 2 µg/mL (≈ 3 µM)
- IC50 [13]: 0.75 µg/mL (≈ 1.13 µM)
- IC90 [13]: 2.4 µg/mL (≈ 3.6 µM)
- IC50 [14]: 2.5 µg/mL (≈ 3.75 µM)
- IC90 [14]: 6.18 µg/mL (≈ 9.28 µM)
- IC50 [15]: 1.63 µg/mL (≈ 2.45 µM)
- IC90 [15]: 5.16 µg/mL (≈ 7.75 µM)
- IC50 [16]: 3.62 µg/mL (≈ 5.44 µM)
- IC90 [16]: 6.57 µg/mL (≈ 9.87 µM)
- IC50 (MG63 (osteosarcoma)): 1.4 µg/mL (≈ 2.1 µM)
- IC90 (MG63 (osteosarcoma)): 1.9 µg/mL (≈ 2.85 µM)
- IC50 (PC-3 (prostate cancer)): 3.6 µg/mL (≈ 5.41 µM)
- IC90 (PC-3 (prostate cancer)): 5.8 µg/mL (≈ 8.71 µM)
- IC50 [17]: 0.27 µg/mL (≈ 0.406 µM)
- IC90 [17]: 0.64 µg/mL (≈ 0.961 µM)

Compound: COc1ccc2cc1Oc1ccc(cc1)C[C@H]1c3cc(c(OC)cc3CCN1C)Oc1c(OC)c(OC)c(CNCc3ccco3)c3c1[C@H](C2)N(C)CC3 [BS-TE-350]
- IC50 [1]: 0.3 µg/mL (≈ 0.41 µM)
- IC90 [1]: 1 µg/mL (≈ 1.37 µM)
- IC50 [2]: 1.11 µg/mL (≈ 1.52 µM)
- IC90 [2]: 1.92 µg/mL (≈ 2.62 µM)
- IC50 [3]: 0.54 µg/mL (≈ 0.738 µM)
- IC90 [3]: 2.52 µg/mL (≈ 3.44 µM)
- IC50 [4]: 0.33 µg/mL (≈ 0.451 µM)
- IC90 [4]: 1.6 µg/mL (≈ 2.19 µM)
- IC50 [5]: 0.59 µg/mL (≈ 0.806 µM)
- IC90 [5]: 2.97 µg/mL (≈ 4.06 µM)
- anti-Jurkat activity increase over tetrandrine ([5]; compared with tetrandrine): ~4 fold
- IC50 [6]: 0.89 µg/mL (≈ 1.22 µM)
- IC90 [6]: 4.11 µg/mL (≈ 5.62 µM)
- IC50 [7]: 0.45 µg/mL (≈ 0.615 µM)
- IC90 [7]: 0.92 µg/mL (≈ 1.26 µM)
- IC50 (A549 (human lung cancer)): 3 µg/mL (≈ 4.1 µM)
- IC90 (A549 (human lung cancer)): 11 µg/mL (≈ 15 µM)
- IC50 [8]: 0.95 µg/mL (≈ 1.3 µM)
- IC90 [8]: 2.5 µg/mL (≈ 3.42 µM)
- IC50 [9]: 1.8 µg/mL (≈ 2.46 µM)
- IC90 [9]: 12.9 µg/mL (≈ 17.6 µM)
- IC50 [10]: 1.82 µg/mL (≈ 2.49 µM)
- IC90 [10]: 2.43 µg/mL (≈ 3.32 µM)
- IC50 [11]: 1.3 µg/mL (≈ 1.78 µM)
- IC90 [11]: 3.3 µg/mL (≈ 4.51 µM)
- IC50 [12]: 0.9 µg/mL (≈ 1.23 µM)
- IC90 [12]: 3.6 µg/mL (≈ 4.92 µM)
- IC50 [13]: 0.3 µg/mL (≈ 0.41 µM)
- IC90 [13]: 1.13 µg/mL (≈ 1.54 µM)
- IC50 [14]: 1.03 µg/mL (≈ 1.41 µM)
- IC90 [14]: 5.13 µg/mL (≈ 7.01 µM)
- IC50 [15]: 1.83 µg/mL (≈ 2.5 µM)
- IC90 [15]: 6.04 µg/mL (≈ 8.25 µM)
- IC50 [16]: 1.51 µg/mL (≈ 2.06 µM)
- IC90 [16]: 4.67 µg/mL (≈ 6.38 µM)
- IC50 (MG63 (osteosarcoma)): 0.8 µg/mL (≈ 1.09 µM)
- IC90 (MG63 (osteosarcoma)): 1.6 µg/mL (≈ 2.19 µM)
- IC50 (PC-3 (prostate cancer)): 1.87 µg/mL (≈ 2.56 µM)
- IC90 (PC-3 (prostate cancer)): 2.83 µg/mL (≈ 3.87 µM)
- IC50 [17]: 0.05 µg/mL (≈ 0.0683 µM)
- IC90 [17]: 1.51 µg/mL (≈ 2.06 µM)
